Experiments:
[1] = system: present invention protein (A16); test: Detection of the ability to convert compound (II) to compound (III), E. coli pKSN452F extract; type: in vitro ADME, Streptomyces ornatus IFO 13069t; conditions: 3 ppm of compound (II) labeled with 14C, components A, B, 10 minutes at 30° C.
Procedure: (§1) Reaction solutions of 30 μl were prepared and maintained for 10 minutes at 30° C. The reaction solutions consisted of a 0.1M potassium phosphate buffer (pH7.0) containing 3 ppm of compound (II) labeled with ^14C, 2 mM of β-NADPH (hereinafter, referred to as “component A”) (Oriental Yeast Company), 2 mg/ml of a ferredoxin derived from spinach (hereinafter referred to as “component B”) (Sigma Company), 0.1 U/ml of ferredoxin reductase (hereinafter, referred to as “component C”) (Sigma Company) and 23 μl of the supernatant fraction recovered in Example 32(2). Similarly to Example 4(3), the reaction solutions after the maintenance were extracted with ethyl acetate and the extracted layers were TLC analyzed. […] A spot corresponding to compound (III) was detected from the reaction solution containing E. coli pKSN849AF extract. In contrast, such a spot was not detected from the reaction solution containing E. coli pKSN2 extract.
(§2) Similarly to Example 32(3), reaction solutions of 30 μl were prepared and maintained for 10 minutes at 30° C. […] The reaction solutions after the maintenance were extracted with ethyl acetate and the extracted layers were TLC analyzed. […] A spot corresponding to compound (III) was detected from the reaction solution containing E. coli pKSN452F extract. In contrast, such a spot was not detected from the reaction solution containing E. coli pKSN2 extract.

[2] = system: present invention protein (A12); test: Detection of the ability to convert compound (II) to compound (III), E. coli pKSN1618F extract; type: in vitro ADME, Streptomyces tsusimaensis IFO 13782; conditions: 3 ppm of compound (II) labeled with 14C, components A, B, 10 minutes at 30° C.
Procedure: as §1
as §2, with “Reaction” for “Similarly to Example 32(3), reaction”, “pKSN1618F” for “pKSN452F”

[3] = system: present invention protein (A15); test: Detection of the ability to convert compound (II) to compound (III), E. coli pKSN1555AF extract; type: in vitro ADME, Streptomyces olivochromogenes IFO 12444; conditions: 3 ppm of compound (II) labeled with 14C, components A, B, 10 minutes at 30° C.
Procedure: as §1
as §2, with “Reaction” for “Similarly to Example 32(3), reaction”, “pKSN1555AF” for “pKSN452F”

[4] = system: present invention protein (A11); test: Detection of the ability to convert compound (II) to compound (III), E. coli pKSN849AF extract; type: in vitro ADME, Streptomyces nogalator IFO13445; conditions: 3 ppm of compound (II) labeled with 14C, components A, B, 10 minutes at 30° C.
Procedure: Reaction solutions of 30 μl were prepared and maintained for 1 hour at 30° C. The reaction solutions consisted of a 0.1M potassium phosphate buffer (pH7.0) containing 3 ppm of compound (II) labeled with ^14C, 2 mM of β-NADPH (hereinafter, referred to as “component A”) (Oriental Yeast Company), 0.2 mg/ml of a ferredoxin derived from spinach (hereinafter referred to as “component B”) (Sigma Company), 1 U/ml of ferredoxin reductase (hereinafter, referred to as “component C”) (Sigma Company) and 18 μl of the supernatant fraction recovered in Example 4(2). Further, there were prepared and maintained similarly reaction solutions having no addition of at least one component utilized in the composition of the above reaction solution, selected from component A, component B and component C. […] Next, the imaging plate was analyzed on Image Analyzer BAS2000 (Fuji Film Company). […]
as §2, with “Reaction” for “Similarly to Example 32(3), reaction”, “Similarly to Example 4(3), the” for “The”, “pKSN849AF” for “pKSN452F”

[5] = system: present invention protein (A19); test: Detection of the ability to convert compound (II) to compound (III), E. coli pKSN1502F extract; type: in vitro ADME, Streptomyces griseus IFO 13849T; conditions: 3 ppm of compound (II) labeled with 14C, components A, B, 10 minutes at 30° C.
Procedure: as §1
as §2, with “pKSN1502F” for “pKSN452F”

[6] = system: leaf pieces derived from the tobacco to which the present invention DNA (A2) was introduced; test: Herbicidal damage of tobacco leaf pieces on MS agar medium containing compound (II); type: cell-based; conditions: MS agar medium containing 0.1 mg/L of compound (II), in the light at room temperature, 7th day of culturing
Text: Leaf pieces of sterily cultured tobacco were infected with each of the agrobacterium strain bearing pBI-NdG6-rSt-923 and the agrobacterium strain bearing pBI-NdG6-rSt12-923. Tobaccos in which the present invention DNA (A2) has been introduced were obtained under the procedures similar to the methods described in Example 19.
Three (3) leaves were taken from the obtained transgenic tobacco. Each leaf was divided into 4 pieces in which each piece was 5 to 7 mm wide. Each of the leaf pieces were planted onto MS agar medium containing 0.1 mg/L of compound (II) and cultured in the light at room temperature. On the 7th day of culturing, the herbicidal damage of each of the leaf pieces was observed.

SMILES: C[C@@H](Oc1cc(-n2c(=O)cc(C(F)(F)F)n(C)c2=O)c(F)cc1Cl)C(=O)O [compound (II)]
- spot corresponding to compound (III) labeled with 14C (TLC) [1]: detected
- spot corresponding to compound (III) labeled with 14C (TLC) [2]: detected
- spot corresponding to compound (III) labeled with 14C (TLC) [3]: detected
- spot corresponding to compound (III) labeled with 14C (TLC) [4]: detected
- spot corresponding to compound (III) labeled with 14C (TLC) [5]: detected
- herbicidal damage of the leaf pieces [6]: grew continuously
